Legend:
[1] = molecular target: T1, GIRK2 channel (wild type) (Mus musculus, UniProt P48542); experiment: whole-cell patch clamp, HEK293T cells transfected with GIRK2; assay type: cell-based; conditions: for desensitization of induced GIRK2 current in cells co-transfected with M2R and myristylated-phosducin / activation of wildtype GIRK2, percentage change from Ba++ sensitive basal current: 100 mM alcohols; for desensitization of induced GIRK2 current in cells co-transfected with M2R and myristylated-phosducin: 5 uM Carbachol
T1 construct: expressed in transfected cells; host or cells: HEK293T
T1 sequence (P48542 1-425): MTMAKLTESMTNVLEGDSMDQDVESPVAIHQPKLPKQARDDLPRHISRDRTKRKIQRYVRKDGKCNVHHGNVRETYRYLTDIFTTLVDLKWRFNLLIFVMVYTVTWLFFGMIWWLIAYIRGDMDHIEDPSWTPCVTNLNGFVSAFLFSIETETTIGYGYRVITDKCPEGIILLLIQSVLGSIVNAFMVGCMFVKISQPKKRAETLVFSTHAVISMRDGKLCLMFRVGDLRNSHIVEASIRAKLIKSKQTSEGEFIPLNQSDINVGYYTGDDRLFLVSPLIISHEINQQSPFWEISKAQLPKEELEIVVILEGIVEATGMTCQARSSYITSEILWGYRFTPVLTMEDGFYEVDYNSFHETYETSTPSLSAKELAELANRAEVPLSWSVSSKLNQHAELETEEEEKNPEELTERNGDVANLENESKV
From the text: GIRK2c, GIRK4, IRK1, M2R and m-Phosducin were subcloned into PCDNA3.1 vector (Invitrogen). Point mutations were introduced by Quickchange site directed mutagenesis kit (Stratagene). The GIRK2 PIP mutant was generated by overlap-PCR method. Briefly, amino acid 216-NLRKSHL-222 (SEQ ID NO: 25) of IRK1 was swapped into 228-DLRNSHL-234 (SEQ ID NO: 26) of GIRK2, in the region designated βC-βD loop in the crystal structure. Mutations were confirmed by automated DNA sequencing methods.
HEK 293T cells were cultured in DMEM supplemented with 10% FBS, and 1× Glutamax (Invitrogen) in a humidified 37° incubator with 5% CO2. Cells were plated in a 12 well dish, and were transiently transfected using Lipofectamine 2000 (Invitrogen). After 12-24 hrs, cells were re-plated to 12-mm glass coverslips coated with poly-D-Lysine (20 microgram/ml).
HEK293 cells were transfected with 0.2 micrograms of channel cDNA. The cells were co-transfected with 0.04 micrograms of eYFP cDNA to identify transfected cells. 0.8 micrograms of Muscarinic Receptor 2 (M2R) was also co-transfected for experiments with Carbachol. For experiments with and without m-phosducin, 0.8 ug of m-phosducin cDNA was used versus a PCDNA3.1 vector control.
Whole-cell patch clamp recordings were performed 24-72 hrs after transfection. Borosilicate glass electrodes (Warner Instruments) of […] filled with intracellular solution (130 mM KCl, 20 mM NaCl, 5 mM EGTA, 2.56 mM K2ATP, 5.46 mM MgCl2, 0.30 mM Li2GTP, and 10 mM HEPES (pH 7.4)) was used. Membrane currents were recorded using Axopatch 200B (Axon Instruments) amplifier, adjusted electronically for cell capacitance and series resistance (80-100%), filtered at 1 kHz with an 8-pole Bessel filter and digitized at 5 kHz with a Digidata 1200 interface (Axon Instruments). The cells rapidly perfused with a 20 mM K^+ (20K) solution (20 mM KCl, 140 mM NaCl, 0.5 mM CaCl2, 2 mM MgCl2 and 10 mM HEPES (pH7.4)). Alcohols, 5 μM Carbachol, and 1 mM BaCl2 (diluted in 20K solution) were applied from outside the cell with the rapid perfusion system (Warner Instruments). Whole-cell currents were measured using a ramp protocol that holds at −40 mV, steps to −100 mV then ramps to +50 mV and repeats every 2 seconds. Current-voltage relationships also were obtained from the ramp protocol. This protocol was used to measure the inwardly rectifying currents at −100 mV and to ensure stability of recording by monitoring a reversal potential and inward rectification. Current density was measured by dividing inward current at −100 mV by membrane capacitance that was compensated during the recording. Basal currents were measured as the Ba^++ blocked inward currents at −100 mV. Alcohol and Carbachol modulated currents were measured by averaging two consecutive current readings upon reaching steady state, and subtracting the averaged basal current before and after the application of modulator. Pooled data are presented as Mean±SEM and evaluated for statistical significance by a 1-way ANOVA, followed by Bonferroni's multiple comparison post-hoc test.

[2] = molecular target: T2, GIRK4* Leu252 to Tyr mutant channel (Rattus norvegicus, UniProt P48548, L252Y/S143T); experiment: whole-cell patch clamp, GIRK4* L252Y mutant channel; assay type: cell-based; conditions: for activation of GIRK4* Leu252 to Tyr mutant, percentage change from basal: n=8
T2 construct: expressed in transfected cells; host or cells: HEK293 / HEK293T
T2 sequence (P48548 1-419 S143T/L252Y): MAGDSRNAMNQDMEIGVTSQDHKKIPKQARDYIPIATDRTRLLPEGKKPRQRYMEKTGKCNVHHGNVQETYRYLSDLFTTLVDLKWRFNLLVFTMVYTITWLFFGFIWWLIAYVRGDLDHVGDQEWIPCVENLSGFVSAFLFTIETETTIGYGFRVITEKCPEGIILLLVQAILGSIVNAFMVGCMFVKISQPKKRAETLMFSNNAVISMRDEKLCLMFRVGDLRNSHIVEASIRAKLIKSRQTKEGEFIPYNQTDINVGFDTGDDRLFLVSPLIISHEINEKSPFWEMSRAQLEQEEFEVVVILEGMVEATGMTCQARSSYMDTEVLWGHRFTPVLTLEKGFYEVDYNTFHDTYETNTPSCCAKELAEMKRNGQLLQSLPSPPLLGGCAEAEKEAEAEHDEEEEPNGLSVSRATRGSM
Experimental: Point mutations were introduced by Quickchange site directed mutagenesis kit (Stratagene). The GIRK2 PIP mutant was generated by overlap-PCR method. […] Mutations were confirmed by automated DNA sequencing methods. […] Cells were plated in a 12 well dish, and were transiently transfected using Lipofectamine 2000 (Invitrogen). After 12-24 hrs, cells were re-plated to 12-mm glass coverslips coated with poly-D-[…] microgram/ml). […] The cells were co-transfected with 0.04 micrograms of eYFP cDNA to identify transfected cells. 0.8 micrograms of Muscarinic Receptor 2 (M2R) was also co-transfected for experiments with Carbachol. […] Whole-cell patch clamp recordings were performed 24-72 hrs after transfection. […] Alcohols, 5 μM Carbachol, and 1 mM BaCl2 (diluted in 20K solution) were applied from outside the cell with the rapid perfusion system (Warner Instruments). […] Current-voltage relationships also were obtained from the ramp protocol. This protocol was used to measure the inwardly rectifying currents at -100 mV and to ensure stability of recording by monitoring a reversal potential and inward rectification. […] Alcohol and Carbachol modulated currents were measured by averaging two consecutive current readings upon reaching steady state, and subtracting the averaged basal current before and after the application of modulator.

activation of wildtype GIRK2, percentage change from Ba++ sensitive basal current ([1]; n=32) | activation of GIRK4* Leu252 to Tyr mutant, percentage change from basal [2] | percent change of basal current, GIRK2 (positive = activation) ([1]; 100 mM MPD, -100 mV, n=5) | concentration inducing a noticeable activation of GIRK currents ([1]; dose response, GIRK2) | G-protein activation of wildtype GIRK2 by Carbachol, percentage change from basal current ([1]; 5 μM Carbachol, M2R co-transfected, n=32) | Carb (G-protein mediated) activation, GIRK4* L252 Tyr ([2]; 5 μM Carbachol) | Molecule | desensitization of induced GIRK2 current in cells co-transfected with M2R and myristylated-phosducin [1]
119±5% | 20±3% | – | – | – | – | CCO [EtOH, ethanol] | no desensitization
486±34% | 15±3% | – | – | – | – | 1-propanol [1-PrOH] | no desensitization
305±19% | – | 246±26.7% | 10 mM | – | – | CC(O)CC(C)(C)O (racemic) [MPD, 2-methyl-2,4-pentanediol] | no desensitization
– | – | – | – | 928±141% | 110±14% | C[N+](C)(C)CCOC(N)=O [Carbachol] | rapid activation and desensitization

Source: patent US8097422B2, “Kir channel modulators” (Salk Institute for Biological Studies, priority 2007, dated 2012)
